Experimental data reported in patent US20080318943A1, “Compounds and Uses Thereof - 848” (ASTRAZENECA AB, priority 2007, published 2008).
Several values for one entry are separate records, joined by “and”; a condition that tells them apart may be missing. Identical values can stand only once.

What was measured:
[1] = target: T1, GABAA2 receptors (α2, β3, γ2 receptor subunits transfected into Sf9 cells) (Homo sapiens, UniProt P18507+P47869); assay: GABAA2 Binding Method ([3H]-Flunitrazepam displacement); details: [3H]-Flunitrazepam ~2 nM, α2β3γ2 Sf9 membranes, 1 hr at 4° C.
T1 construct: host or cells: Sf9 cells (membranes)
Method: In some embodiments, the binding test is directed to a subtype of GABAA receptors, such as GABAA1 receptors (i.e., those containing the α1 subunit), GABAA2 receptors (i.e., those containing the α2 subunit), GABAA3 receptors (i.e., those containing the α3 subunit) and GABAA5 receptors (i.e., those containing the α5 subunit).
[^3H]-Flunitrazepam (Cat #NET567): Prepare 10× stock=20 nM, [F} in assay=˜2 nM
1. […] Add 5 ul of 30 uM flumazenil to wells 12 D-E for 50% control wells.
5. Add 25 μl [^3H]-Flunitrazepam (Automation Program 6). Incubate for 1 hr at 4° C.
6. Collect membranes on a cell harvester onto GF/B filter plates (pre-wet with dH2O and wash 5×400 μl/well, with cold assay buffer. (First 3 washes are considered hot; last two are cold.)
Data is analyzed by calculating percent of control, IC50, and Ki in an XLfit template. The following formula is used in the templates: […]

[2] = target: T2, GABAA receptor α1β2γ2 (Homo sapiens, UniProt P14867+P18507); assay: Two-electrode voltage-clamp potentiation of GABA EC10 current in Xenopus oocytes, GABAA1; type: cell-based; details: percentage potentiation of GABA EC10 current divided by that of diazepam
T2 construct: expressed in transfected cells; host or cells: Xenopus laevis oocytes injected with cRNA
Method: GABAA receptors were heterologously expressed in Xenopus oocytes by injecting cRNA corresponding to human α1, α2, α3, α5, β2, P3 and γ2 subunits of the GABAA receptor genes. The specific subunit combinations (subtypes) were as follows: α1β2γ2, α2β3γ2, α3β3γ2, and α5β3γ2. The EC10 of GABA is approximated for each cell. Stability of GABA-mediated (EC10) current is established. Modulatory effect of test compound is determined and compared across subtypes. […] Thus, the assay can characterize modulatory effects and determine subtype selectivity of test compounds on major subtypes of GABAA receptors.
Xenopus laevis frogs (Xenopus I, Kalamazoo, Mich.) were anesthetized using 0.15% tricaine. Surgically removed ovarian lobes were teased out in OR2 solution (82 NaCl, 2.5 KCl, 5 HEPES, 1.5 NaH2PO4, 1 MgCl2, 0.1 EDTA, in mM, pH 7.4). The oocytes were defolliculated by incubation in 25 mL OR2 containing 0.2% collagenase 1A (SIGMA) two times for about 60 minutes on a platform shaker and stored in Leibovitz's L-15 medium. Oocytes were injected the following day in 0.5× Leibovitz's L-15 medium containing […] gentamycin, 10 units/ml penicillin, and […] streptomycin.
Capped cRNAs from the linearized vectors containing human α1, β2 and γ2 subunits of the GABAA receptor genes were mixed in ratio of […]. Oocytes were injected with 25-50 nL of mixed RNA with an appx molar ratio for α1, β2, and γ2 as 1:1:10. Oocyte recordings were done 2-10 days after injection. The same methods apply to subtypes derived from α2β3γ2, α3β3γ2, and α5β3γ2, except for 1:1:1 ratio was used for α, β, and γ subunits.
All measurements were done in a medium containing ND-96 (96 NaCl, 2 KCl, 1.8 CaCl2.2H2O, 1 MgCl2.6H2O, 5 HEPES, in mM, pH 7.5). Two-electrode voltage-clamp recording was carried out using OpusXpress amplifier (Axon Instruments, Foster City, Calif.), which allows simultaneous recording from 8 oocytes. Oocytes were impaled with two electrodes of 1-2 MΩ tip resistance when filled with 3M KCl. Recordings were begun when membrane potential became stable at potentials negative to −50-−60 mV. Membrane potential was held at −60 mV. […] The concentration of GABA corresponded to the EC10 value calculated for each oocyte. The modulator pulses started 30 s before the GABA pulse so as to allow preincubation with the modulator. A set of 3 pulses with just GABA without modulator was given prior to the modulator-containing pulses to define the baseline GABA response. Two oocytes per each experiment were dedicated to observe the effect of diazepam on GABA response to ensure the presence of γ2 subunit in the GABAA pentameric complex, which imparts diazepam sensitivity to the complex.
Current amplitude (i) was measured from baseline to peak using Clampfit (Axon Inst., Foster City, Calif.). Potentiation was calculated as percent change from the baseline GABA current flux 100×(imod/icontrol)−1) where imod=current mediated by modulator+GABA and icontrol=current mediated by GABA alone. […] Similarly, a value of −50% potentiation means the presence of modulator caused a 50% decrease in the control current. Various other data shown here were fitted and plotted using GraphPad Prism (GraphPad Software, Inc. San Diego, Calif.). The percentage potentiation was converted to relative potentiation by dividing it with percentage potentiation value obtained from the same assay with diazepam as a control.

T2 sequence (P14867 28-456): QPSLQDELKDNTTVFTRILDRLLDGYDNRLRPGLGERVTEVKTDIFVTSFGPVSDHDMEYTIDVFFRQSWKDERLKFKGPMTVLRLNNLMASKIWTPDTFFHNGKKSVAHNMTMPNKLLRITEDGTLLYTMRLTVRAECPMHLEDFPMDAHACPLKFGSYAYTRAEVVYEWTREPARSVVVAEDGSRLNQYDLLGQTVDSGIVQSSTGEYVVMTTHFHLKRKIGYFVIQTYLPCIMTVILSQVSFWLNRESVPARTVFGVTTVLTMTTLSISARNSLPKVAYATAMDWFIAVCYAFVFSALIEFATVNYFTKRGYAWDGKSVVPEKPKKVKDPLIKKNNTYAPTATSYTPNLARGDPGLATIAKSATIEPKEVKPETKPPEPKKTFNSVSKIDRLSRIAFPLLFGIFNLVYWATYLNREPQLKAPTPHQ
T2 sequence (P47870 25-512 partner limits assumed): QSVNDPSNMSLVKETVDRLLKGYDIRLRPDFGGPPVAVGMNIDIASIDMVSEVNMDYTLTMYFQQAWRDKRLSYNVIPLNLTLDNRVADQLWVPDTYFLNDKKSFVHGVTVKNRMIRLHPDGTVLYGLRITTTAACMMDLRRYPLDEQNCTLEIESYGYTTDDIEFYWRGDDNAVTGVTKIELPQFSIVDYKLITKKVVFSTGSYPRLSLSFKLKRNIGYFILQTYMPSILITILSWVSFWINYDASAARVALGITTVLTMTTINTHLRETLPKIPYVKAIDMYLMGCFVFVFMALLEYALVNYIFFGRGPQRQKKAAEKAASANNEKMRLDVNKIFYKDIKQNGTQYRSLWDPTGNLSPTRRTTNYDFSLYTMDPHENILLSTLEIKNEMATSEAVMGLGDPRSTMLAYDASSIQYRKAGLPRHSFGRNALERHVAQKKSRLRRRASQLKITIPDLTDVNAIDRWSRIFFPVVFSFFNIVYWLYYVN
T2 sequence (P18507 40-475): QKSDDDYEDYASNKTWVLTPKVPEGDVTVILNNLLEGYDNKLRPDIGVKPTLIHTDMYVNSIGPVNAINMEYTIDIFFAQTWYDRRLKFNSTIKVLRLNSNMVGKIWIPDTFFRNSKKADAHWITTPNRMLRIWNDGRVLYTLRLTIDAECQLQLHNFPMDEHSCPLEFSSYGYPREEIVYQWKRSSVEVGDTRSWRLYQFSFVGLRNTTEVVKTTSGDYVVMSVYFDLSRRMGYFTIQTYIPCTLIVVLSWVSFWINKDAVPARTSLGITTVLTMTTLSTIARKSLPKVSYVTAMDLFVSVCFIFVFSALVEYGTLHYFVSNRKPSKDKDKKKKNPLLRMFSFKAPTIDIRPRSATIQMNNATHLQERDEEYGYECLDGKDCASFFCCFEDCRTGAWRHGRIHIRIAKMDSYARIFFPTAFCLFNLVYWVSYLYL
T1 sequence (P47869 29-451): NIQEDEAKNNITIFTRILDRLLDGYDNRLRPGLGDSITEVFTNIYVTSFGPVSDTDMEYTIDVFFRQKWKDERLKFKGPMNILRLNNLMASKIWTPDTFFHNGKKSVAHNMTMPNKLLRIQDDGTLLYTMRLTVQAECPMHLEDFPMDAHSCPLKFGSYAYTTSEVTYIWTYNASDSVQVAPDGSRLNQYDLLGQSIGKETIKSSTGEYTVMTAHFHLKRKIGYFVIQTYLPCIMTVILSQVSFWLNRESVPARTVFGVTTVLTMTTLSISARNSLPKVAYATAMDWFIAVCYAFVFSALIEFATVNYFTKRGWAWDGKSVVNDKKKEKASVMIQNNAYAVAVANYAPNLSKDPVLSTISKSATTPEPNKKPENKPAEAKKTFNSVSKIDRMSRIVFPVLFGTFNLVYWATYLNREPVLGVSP
T1 sequence (P28472 26-473 partner): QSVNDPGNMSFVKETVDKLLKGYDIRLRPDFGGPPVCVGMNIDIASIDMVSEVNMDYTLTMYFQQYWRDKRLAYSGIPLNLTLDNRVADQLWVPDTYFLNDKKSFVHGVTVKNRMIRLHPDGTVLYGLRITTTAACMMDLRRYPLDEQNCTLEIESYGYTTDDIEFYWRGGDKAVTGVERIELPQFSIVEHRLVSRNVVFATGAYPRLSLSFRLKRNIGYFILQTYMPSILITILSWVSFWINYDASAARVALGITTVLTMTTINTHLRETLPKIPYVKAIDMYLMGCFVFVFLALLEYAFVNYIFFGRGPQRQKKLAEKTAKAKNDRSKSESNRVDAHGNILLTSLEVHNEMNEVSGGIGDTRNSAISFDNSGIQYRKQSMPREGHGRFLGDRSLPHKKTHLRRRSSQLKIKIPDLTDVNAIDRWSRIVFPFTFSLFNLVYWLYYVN
T1 sequence (P18507 40-475): as the sequence (P18507 40-475) above

Ki [1] | Relative Potentiation for GABAA1 [2] | SMILES
47.7 nM | 0.61 | COc1ccc(CN2Cc3nc4c(-c5ccc(OC)c(OC)c5)cccc4c(N)c3C2=O)cc1
21.2 nM | 0.54 | CCCN1Cc2nc3c(-c4cccc(C#N)c4)cccc3c(N)c2C1=O [3-(9-amino-1-oxo-2-propyl-2,3-dihydro-1H-pyrrolo[3,4-b]quinolin-5-yl)benzonitrile]
64.9 nM | 0.26 | CCCN1Cc2nc3c(-c4cncc(C#N)c4)cccc3c(N)c2C1=O [5-(9-amino-1-oxo-2-propyl-2,3-dihydro-1H-pyrrolo[3,4-b]quinolin-5-yl)nicotinonitrile]
2.7 nM | 0.21 | COc1ccc(CN2Cc3nc4c(-c5ccc(C)nc5C)cccc4c(N)c3C2=O)cc1OC [9-amino-2-(3,4-dimethoxybenzyl)-5-(2,6-dimethylpyridin-3-yl)-2,3-dihydro-1H-pyrrolo[3,4-b]quinolin-1-one]
9.18 nM | 0.3 | COc1ccc(CN2Cc3nc4c(-c5cc(C)ccc5OC)cccc4c(N)c3C2=O)cc1OC [9-amino-2-(3,4-dimethoxybenzyl)-5-(2-methoxy-5-methylphenyl)-2,3-dihydro-1H-pyrrolo[3,4-b]quinolin-1-one]
2.3 nM | 0.12 | COc1ccc(CN2Cc3nc4c(-c5cccnc5OC)cccc4c(N)c3C2=O)cc1OC [9-amino-2-(3,4-dimethoxybenzyl)-5-(2-methoxypyridin-3-yl)-2,3-dihydro-1H-pyrrolo[3,4-b]quinolin-1-one]
4.7 nM | 0.26 | COc1ccc(-c2cccc3c(N)c4c(nc23)CN(Cc2ccc(OC)c(OC)c2)C4=O)c(C)n1 [9-amino-2-(3,4-dimethoxybenzyl)-5-(6-methoxy-2-methylpyridin-3-yl)-2,3-dihydro-1H-pyrrolo[3,4-b]quinolin-1-one]
9.89 nM | 0.25 | COc1ccc(CN2Cc3nc4c(-c5cccnc5OC)cccc4c(N)c3C2=O)cc1Cl [9-amino-2-(3-chloro-4-methoxybenzyl)-5-(2-methoxypyridin-3-yl)-2,3-dihydro-1H-pyrrolo[3,4-b]quinolin-1-one]
6.09 nM | 0.22 | COc1ccc(CN2Cc3nc4c(-c5cncc(OC)c5)cccc4c(N)c3C2=O)cc1 [9-amino-2-(4-methoxybenzyl)-5-(5-methoxypyridin-3-yl)-2,3-dihydro-1H-pyrrolo[3,4-b]quinolin-1-one]
30.2 nM | 0.4 | COc1ncc(-c2cccc3c(N)c4c(nc23)CN(Cc2ccc3c(c2)OCO3)C4=O)c(OC)n1 [9-amino-2-(benzo[d][1,3]dioxol-5-ylmethyl)-5-(2,4-dimethoxypyrimidin-5-yl)-2,3-dihydro-1H-pyrrolo[3,4-b]quinolin-1-one]
60.6 nM | 0.33 | COc1ccc(OC)c(-c2cccc3c(N)c4c(nc23)CN(Cc2ccc3c(c2)OCO3)C4=O)c1 [9-amino-2-(benzo[d][1,3]dioxol-5-ylmethyl)-5-(2,5-dimethoxyphenyl)-2,3-dihydro-1H-pyrrolo[3,4-b]quinolin-1-one]
5.78 nM | 0.24 | COc1ncccc1-c1cccc2c(N)c3c(nc12)CN(Cc1ccc2c(c1)OCO2)C3=O [9-amino-2-(benzo[d][1,3]dioxol-5-ylmethyl)-5-(2-methoxypyridin-3-yl)-2,3-dihydro-1H-pyrrolo[3,4-b]quinolin-1-one]
65.5 nM | – | Cc1cc(C)cc(-c2cccc3c(N)c4c(nc23)CN(C)C4=O)c1 [9-amino-5-(3,5-dimethylphenyl)-2-methyl-2,3-dihydro-1H-pyrrolo[3,4-b]quinolin-1-one]
76.5 nM | – | CCCN1Cc2nc3c(-c4cccc(Cl)c4)cccc3c(N)c2C1=O [9-amino-5-(3-chlorophenyl)-2-propyl-2,3-dihydro-1H-pyrrolo[3,4-b]quinolin-1-one]
57 nM | – | CCCN1Cc2nc3c(-c4cccc(F)c4OC)cccc3c(N)c2C1=O [9-amino-5-(3-fluoro-2-methoxyphenyl)-2-propyl-2,3-dihydro-1H-pyrrolo[3,4-b]quinolin-1-one]
80.4 nM | – | COc1cc(F)cc(-c2cccc3c(N)c4c(nc23)CN(C)C4=O)c1 [9-amino-5-(3-fluoro-5-methoxyphenyl)-2-methyl-2,3-dihydro-1H-pyrrolo[3,4-b]quinolin-1-one]
78.3 nM | – | CCCN1Cc2nc3c(-c4ccc(F)cc4)cccc3c(N)c2C1=O [9-amino-5-(4-fluorophenyl)-2-propyl-2,3-dihydro-1H-pyrrolo[3,4-b]quinolin-1-one]
81.1 nM | – | CCCN1Cc2nc3c(-c4cnc(OC)c(F)c4)cccc3c(N)c2C1=O [9-amino-5-(5-fluoro-6-methoxypyridin-3-yl)-2-propyl-2,3-dihydro-1H-pyrrolo[3,4-b]quinolin-1-one]
85.7 nM | – | CCCN1Cc2nc3c(-c4cnc(Cl)c(C)c4)cccc3c(N)c2C1=O [9-amino-5-(6-chloro-5-methylpyridin-3-yl)-2-propyl-2,3-dihydro-1H-pyrrolo[3,4-b]quinolin-1-one]
3.63 nM and 6.36 nM | – | COc1cccc(F)c1-c1cccc2c(N)c3c(nc12)CN(C1CC1)C3=O [Example 16, 9-Amino-2-cyclopropyl-5-(2-fluoro-6-methoxyphenyl)-2,3-dihydropyrrolo[3,4-b]quinolin-1-one]
8.33 nM | – | COc1ccc(-c2c(F)ccc3c(N)c4c(nc23)CN(C2CC2)C4=O)c(OC)c1 [Example 28, 9-Amino-2-cyclopropyl-5-(2,4-dimethoxyphenyl)-6-fluoro-2,3-dihydropyrrolo[3,4-b]quinolin-1-one]
2.43 nM | – | CCN1Cc2nc3c(-c4cnccc4OC)c(F)ccc3c(N)c2C1=O [Example 36, 9-Amino-2-ethyl-6-fluoro-5-(4-methoxypyridin-3-yl)-2,3-dihydropyrrolo[3,4-b]quinolin-1-one]
0.774 nM | – | COc1ccc(-c2c(F)ccc3c(N)c4c(nc23)CN(C2CCC2)C4=O)c(OC)n1 [Example 52, 9-Amino-2-cyclobutyl-5-(2,6-dimethoxypyridin-3-yl)-6-fluoro-2,3-dihydropyrrolo[3,4-b]quinolin-1-one]
14.5 nM | – | COc1ccc(-c2c(F)ccc3c(N)c4c(nc23)CN(C2CC2)C4=O)c(OC)n1 [Example 54, 9-Amino-2-cyclopropyl-5-(2,6-dimethoxypyridin-3-yl)-6-fluoro-2,3-dihydropyrrolo[3,4-b]quinolin-1-one]
3.49 nM | – | CCCN1Cc2nc3c(-c4c(F)cccc4OC)c(F)ccc3c(N)c2C1=O [Example 55, 9-Amino-6-fluoro-5-(2-fluoro-6-methoxyphenyl)-2-propyl-2,3-dihydropyrrolo[3,4-b]quinolin-1-one]

SMILES | Ki [1] | Relative Potentiation for GABAA1 [2]
CCN1Cc2nc3c(-c4cnc(OC)nc4OC)c(F)ccc3c(N)c2C1=O [Example 34, 9-Amino-5-(2,4-dimethoxypyrimidin-5-yl)-2-ethyl-6-fluoro-2,3-dihydropyrrolo[3,4-b]quinolin-1-one] | 16.7 nM | –
